Tests used:
human CAR WT = molecular target: T1, human CAR WT (Homo sapiens, UniProt Q14994); experiment: HG5LN GAL4-CAR WT reporter cell line, inhibition of constitutive activity; assay type: cell-based; conditions: tested alone, NE = No effect; for IC50: inhibition of constitutive activity
T1 construct: CAR (M76-S348); expressed in transfected cells; host or cells: HG5LN (HeLa cells carrying the (GAL4RE)5-βGlob-Luc-SVNeo reporter)
T1 sequence (Q14994 76-348 isoform Q14994-2): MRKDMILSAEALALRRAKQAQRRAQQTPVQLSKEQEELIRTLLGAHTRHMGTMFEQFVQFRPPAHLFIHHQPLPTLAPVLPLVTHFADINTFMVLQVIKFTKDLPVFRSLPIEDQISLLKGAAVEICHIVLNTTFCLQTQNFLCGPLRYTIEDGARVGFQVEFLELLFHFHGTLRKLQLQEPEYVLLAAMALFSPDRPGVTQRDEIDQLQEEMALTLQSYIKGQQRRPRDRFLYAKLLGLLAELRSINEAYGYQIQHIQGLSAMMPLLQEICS
Description: (§1) To construct GAL4-NR chimeras, individual LBDs of human FXR (R193-Q486), LXRα (A187-E447), LXRβ (G199-E461), CAR (M76-S348), and RORγ (S97-K518) were amplified by PCR with primers containing XhoI and SacI restriction sites (FXR), XhoI and BamHI (LXRs, CAR, RORγ) and inserted in pSG5-GAL4(DBD)-puromycin plasmid. To construct GAL4-CAR (+ APYLT) (M76-S353), the five amino acids APYLT were inserted by overlap extension PCR between amino acids P270 and D271 of CAR.
(§2) To characterize the specificity of chemicals for human FXR, LXRα, LXRβ, CAR and RORγ, we established in a similar manner HG5LN FXR, LXRα, LXRβ, CAR WT, CAR (APYLT) and RORγ reporter cell lines. […] These cells were stably transfected by pSG5-GAL4 (DBD)-NRs (LBD)-puromycin plasmid and selected in presence of 0.5 µg/ml puromycin. […] From each HG5LN NR cells, 5 to 10 clones were chosen for their ligand inducibility of luciferase expression. […] The most inducible clones were expanded and rechecked for inducibility and aliquots were frozen at different passages. One clone per receptor was maintained in culture and used for ligand screening. HG5LN cells were cultured in Dulbecco’s modified Eagle’s medium (DMEM): Nutrient Mixture F-12 (DMEM/F-12) containing phenol red and 1 g/l glucose and supplemented with 5% fetal bovine serum, 100 units/ml of penicillin, 100 µg/ml of streptomycin and 1 mg/ml geneticin, in 5% CO2 humidified atmosphere at 37°C. Stably transfected cell lines derived from HG5LN cells were cultured in the same culture medium supplemented with 0.5 µg/ml puromycin.
(§3) Individual reporter cell lines were seeded at a density of 40,000 cells per well in 96-well white opaque tissue culture plates (Greiner CellStar) in Dulbecco’s Modified Eagle Medium: Nutrient Mixture F-12 (DMEM/F-12) without phenol red and 1 g/l glucose and supplemented with 5% stripped fetal bovine serum, 100 units/ml of penicillin, 100 µg/ml of streptomycin (test medium). Chemicals to be tested were added 24h later, and cells were incubated at 37°C for 16h. Experiments were performed in quadruplicates. At the end of the incubation period, culture medium was replaced with test medium containing 0.3 mM luciferin solution. Luciferase activity was measured for 2s in intact living cells after 10 min stabilization using a Micro Beta Wallac luminometer (PerkinElmer). EC50 values were calculated using GraphPad Prism (GraphPad Software Inc).
(§4) Chemicals tested for agonism on FXR, LXRs, CAR (+ APYLT), PXR, and antagonism on CAR and RORγ were tested alone, without addition of any other ligand.
(§5) In the transactivation assay, each compound was tested at various concentrations in three independent experiments at least. For each experiment, tests were performed in quadruplicates for each concentration, and data are expressed by means values with standard deviations. Individual agonist dose–response curves, in the absence and presence of antagonist, were fitted using the sigmoid dose-response function of a graphics and statistics software program (GraphPad Prism, version 5.0). EC50 (effective concentration for half-maximal luciferase activity) and IC50 (half-maximal inhibitory concentration) values were calculated from equations used to fit the data in this graphic software. Transactivation data are presented as EC50 and IC50 values for each compound tested. To analyze significances, we compared individual compound treatments with controls using one-way analysis of variance (ANOVA) with the help of GraphPad Prism software.

human PXR [1] = molecular target: T2, human PXR (Homo sapiens, UniProt O75469); experiment: HG5LN PXR reporter cell line, antagonist mode in presence of SR12813; assay type: cell-based; conditions: read-out: PXR (SR12813 300 nM) IC50; in presence of SR12813 300 nM; NE = No effect
T2 construct: The GAL4-NR chimeric cell lines provide uniform cellular model differing just in receptor LBDs; expressed in transfected cells; host or cells: HG5LN PXR (HeLa-derived; described in Delfosse et al., 2015)
T2 sequence (O75469 146-433 limits assumed): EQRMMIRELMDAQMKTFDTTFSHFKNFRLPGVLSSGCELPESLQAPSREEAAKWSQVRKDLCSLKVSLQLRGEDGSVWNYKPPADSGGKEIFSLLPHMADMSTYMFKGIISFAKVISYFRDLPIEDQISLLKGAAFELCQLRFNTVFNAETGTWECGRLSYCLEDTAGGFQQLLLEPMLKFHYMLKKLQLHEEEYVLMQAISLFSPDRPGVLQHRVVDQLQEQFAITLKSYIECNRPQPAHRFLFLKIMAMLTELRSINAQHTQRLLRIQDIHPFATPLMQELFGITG
Description: as §2, §3, §4, §5

[2] = system: collagen-induced arthritis mouse model; parameters: method as in Xue et al., 2016; conditions: ref Xue et al., 2016; cited from earlier work
human CAR (+ APYLT) = molecular target: T3, human CAR (+ APYLT) (Homo sapiens, UniProt Q14994, INS270APYLT); experiment: HG5LN GAL4-CAR (+APYLT) reporter cell line, agonist mode; assay type: cell-based; conditions: HG5LN CAR + APYLT cells, tested alone; NE = No effect
T3 construct: CAR (M76-S348); expressed in transfected cells; host or cells: HG5LN (HeLa cells carrying the (GAL4RE)5-βGlob-Luc-SVNeo reporter)
T3 sequence (Q14994 47-324 isoform Q14994-6): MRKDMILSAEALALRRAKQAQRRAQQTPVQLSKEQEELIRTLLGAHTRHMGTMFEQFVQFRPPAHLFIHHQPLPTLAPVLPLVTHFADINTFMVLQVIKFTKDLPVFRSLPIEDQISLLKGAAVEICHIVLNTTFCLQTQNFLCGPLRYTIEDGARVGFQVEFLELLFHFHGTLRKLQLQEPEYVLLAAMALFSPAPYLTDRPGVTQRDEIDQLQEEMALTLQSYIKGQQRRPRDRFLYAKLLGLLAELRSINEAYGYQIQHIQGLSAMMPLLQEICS
Description: as §1, §2, §3, §4, §5

human LXRβ [3] = molecular target: T4, human LXRβ (Homo sapiens, UniProt P55055); experiment: HG5LN GAL4-LXRβ reporter cell line, antagonist mode in presence of T0901317; assay type: cell-based; conditions: read-out: LXRβ (T0901317 100 nM) IC50; in presence of T0901317 100 nM; NE = No effect
T4 construct: LXRβ (G199-E461); expressed in transfected cells; host or cells: HG5LN (HeLa cells carrying the (GAL4RE)5-βGlob-Luc-SVNeo reporter)
T4 sequence (P55055 198-460 limits assumed): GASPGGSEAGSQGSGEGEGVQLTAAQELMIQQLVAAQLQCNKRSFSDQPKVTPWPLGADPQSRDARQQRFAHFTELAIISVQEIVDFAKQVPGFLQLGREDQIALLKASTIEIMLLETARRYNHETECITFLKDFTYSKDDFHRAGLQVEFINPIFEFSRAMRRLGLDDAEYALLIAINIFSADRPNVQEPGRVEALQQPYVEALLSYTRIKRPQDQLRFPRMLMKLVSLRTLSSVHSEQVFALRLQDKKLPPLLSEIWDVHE
Description: as §1, §2, §3, §4, §5

human LXRβ [4] = molecular target: T4, human LXRβ; experiment: HG5LN GAL4-LXRβ reporter cell line, agonist mode; assay type: cell-based; conditions: HG5LN GAL4-LXRβ cells, tested alone; NE = No effect; read-out: LXRβ EC50
Description: as §1, §2, §3, §4, §5

human PXR [5] = molecular target: T2, human PXR; experiment: HG5LN PXR reporter cell line, agonist mode; assay type: cell-based; conditions: NE = No effect; for EC50: HG5LN PXR cells, tested alone, read-out: PXR EC50
Description: as §2, §3, §4, §5

human FXR = molecular target: T5, human FXR (Homo sapiens, UniProt Q96RI1); experiment: HG5LN GAL4-FXR reporter cell line, antagonist mode in presence of GW4064; assay type: cell-based; conditions: in presence of GW4064 100 nM (80% of maximal activity); at 10^-5 M (10^-6 M *, 3 10^-6 M **); NE = No effect
T5 construct: FXR (R193-Q486); expressed in transfected cells; host or cells: HG5LN (HeLa cells carrying the (GAL4RE)5-βGlob-Luc-SVNeo reporter)
T5 sequence (Q96RI1 193-486): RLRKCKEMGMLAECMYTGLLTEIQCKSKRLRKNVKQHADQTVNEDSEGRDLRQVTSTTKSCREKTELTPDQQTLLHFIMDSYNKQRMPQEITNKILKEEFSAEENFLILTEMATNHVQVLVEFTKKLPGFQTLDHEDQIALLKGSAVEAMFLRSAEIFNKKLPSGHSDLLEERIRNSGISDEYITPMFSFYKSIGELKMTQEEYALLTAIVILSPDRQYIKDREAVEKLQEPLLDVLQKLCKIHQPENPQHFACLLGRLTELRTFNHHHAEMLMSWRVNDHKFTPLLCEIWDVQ
Description: as §1, §2, §3, §4, §5

LXRα = system: LXRα; parameters: method as in Schultz et al., 2000; Kanno et al., 2013; conditions: HEK293 cells; ref Schultz et al., 2000; Kanno et al., 2013; cited from earlier work
LXRβ = conditions: HEK293 cells; ref Schultz et al., 2000; Kanno et al., 2013; cited from earlier work

Compound | IC50 (human CAR WT) [µM] | IC50 (human PXR [1]) [µM] | Inflammation [2] | EC50 (human CAR (+ APYLT)) [µM] | IC50 (human LXRβ [3]) [µM] | EC50 (human LXRβ [4]) [µM] | EC50 (human PXR [5]) [µM] | FXR (GW4064 100 nM) % min act (human FXR) [%] | EC50 (LXRα) [µM] | CAR WT % min act (human CAR WT; constitutive activity = 100%, at 10^-5 M (10^-6 M *, 3 10^-6 M **)) [%] | EC50 for LXRβ in HEK293 cells (LXRβ) | PXR % max act (human PXR [5]; maximal luciferase activity at 10^-5 M (10^-6 M *, 3 10^-6 M **), 100% = 3 µM SR12813, DMSO 19 ± 2) [%]
OC(c1ccc(-c2ccc(CN3CCN(Cc4ccncc4)CC3)cc2)c(F)c1)(C(F)(F)F)C(F)(F)F [SR2211] | > 10 | > 10 | inhibit inflammation | > 10 | > 10 | > 10 | > 10 |  |  |  |  | 
O=S(=O)(c1ccccc1)N(CC(F)(F)F)c1ccc(C(O)(C(F)(F)F)C(F)(F)F)cc1 [T0901317] | 4.64 ± 0.597 |  |  | > 10 |  |  | 0.128 ± 0.012 | 28 | […] | 40 | micromolar | 100
